Test results taken from ChEMBL document CHEMBL3046607, “Synthesis and Herbicidal Activity of New 1-Alkyl-3-aryloxypyrazole-4-carboxamide Derivatives” (J Pestic Sci, 2004).
Active and inactive are the calls of the source. No cut-off for these calls is given here.

Columns and labels:
Elatine triandra [1] = experiment: Post-emergence herbicidal activity against Elatine triandra assessed as bleaching of stem/leaf parts; assay type: functional, organism-based; note: test concentration or dose not given here
Ammannia multiflora [2] = experiment: Post-emergence herbicidal activity against Ammannia multiflora assessed as bleaching of stem/leaf parts; assay type: functional, organism-based
Rotala indica [3] = experiment: Post-emergence herbicidal activity against Rotala indica assessed as bleaching of stem/leaf parts; assay type: functional, organism-based
Lindernia procumbens [4] = experiment: Post-emergence herbicidal activity against Lindernia procumbens assessed as bleaching of stem/leaf parts; assay type: functional, organism-based; note: test concentration or dose not given here
[5] = tested on: Schoenoplectiella juncoides; experiment: Post-emergence herbicidal activity against Schoenoplectiella juncoides assessed as bleaching of stem/leaf parts; assay type: functional, organism-based; note: test concentration or dose not given here
Ammannia multiflora [6] = experiment: Pre-emergence herbicidal activity against Ammannia multiflora at 500 g a.i/ha measured after 14 days; assay type: functional, organism-based
Elatine triandra [7] = experiment: Pre-emergence herbicidal activity against Elatine triandra at 100 g a.i/ha measured after 14 days; assay type: functional, organism-based
Elatine triandra [8] = experiment: Pre-emergence herbicidal activity against Elatine triandra at 500 g a.i/ha measured after 14 days; assay type: functional, organism-based
Rotala indica [9] = experiment: Pre-emergence herbicidal activity against Rotala indica at 100 g a.i/ha measured after 14 days; assay type: functional, organism-based
Oryza sativa [10] = experiment: Phytotoxicity against Oryza sativa cv. Koshihikari (rice) at 100 g a.i/ha measured after 14 days; assay type: organism-based; details: in vivo, 336 h
Oryza sativa [11] = experiment: Phytotoxicity against Oryza sativa cv. Koshihikari (rice) at 33 g a.i/ha measured after 14 days; assay type: organism-based; details: in vivo, 336 h
Oryza sativa [12] = experiment: Phytotoxicity against Oryza sativa cv. Koshihikari (rice) at 500 g a.i/ha measured after 14 days; assay type: organism-based; details: in vivo, 336 h
Ammannia multiflora [13] = experiment: Pre-emergence herbicidal activity against Ammannia multiflora at 33 g a.i/ha measured after 14 days; assay type: functional, organism-based
Ammannia multiflora [14] = experiment: Pre-emergence herbicidal activity against Ammannia multiflora at 100 g a.i/ha measured after 14 days; assay type: functional, organism-based
Elatine triandra [15] = experiment: Pre-emergence herbicidal activity against Elatine triandra at 33 g a.i/ha measured after 14 days; assay type: functional, organism-based
Rotala indica [16] = experiment: Pre-emergence herbicidal activity against Rotala indica at 33 g a.i/ha measured after 14 days; assay type: functional, organism-based
Rotala indica [17] = experiment: Pre-emergence herbicidal activity against Rotala indica at 500 g a.i/ha measured after 14 days; assay type: functional, organism-based
Lindernia procumbens [18] = experiment: Pre-emergence herbicidal activity against Lindernia procumbens at 33 g a.i/ha measured after 14 days; assay type: functional, organism-based
Lindernia procumbens [19] = experiment: Pre-emergence herbicidal activity against Lindernia procumbens at 100 g a.i/ha measured after 14 days; assay type: functional, organism-based
[20] = tested on: Schoenoplectiella juncoides; experiment: Pre-emergence herbicidal activity against Schoenoplectiella juncoides at 33 g a.i/ha measured after 14 days; assay type: functional, organism-based
Lindernia procumbens [21] = experiment: Pre-emergence herbicidal activity against Lindernia procumbens at 500 g a.i/ha measured after 14 days; assay type: functional, organism-based
[22] = tested on: Schoenoplectiella juncoides; experiment: Pre-emergence herbicidal activity against Schoenoplectiella juncoides at 100 g a.i/ha measured after 14 days; assay type: functional, organism-based
[23] = tested on: Schoenoplectiella juncoides; experiment: Pre-emergence herbicidal activity against Schoenoplectiella juncoides at 500 g a.i/ha measured after 14 days; assay type: functional, organism-based
Pontederia vaginalis [24] = experiment: Pre-emergence herbicidal activity against Monochoria vaginalis at 33 g a.i/ha measured after 14 days; assay type: functional, organism-based
Pontederia vaginalis [25] = experiment: Pre-emergence herbicidal activity against Monochoria vaginalis at 500 g a.i/ha measured after 14 days; assay type: functional, organism-based
Pontederia vaginalis [26] = experiment: Pre-emergence herbicidal activity against Monochoria vaginalis at 100 g a.i/ha measured after 14 days; assay type: functional, organism-based
Cyperus difformis [27] = experiment: Pre-emergence herbicidal activity against Cyperus difformis at 33 g a.i/ha measured after 14 days; assay type: functional, organism-based
Cyperus difformis [28] = experiment: Pre-emergence herbicidal activity against Cyperus difformis at 100 g a.i/ha measured after 14 days; assay type: functional, organism-based
Cyperus difformis [29] = experiment: Pre-emergence herbicidal activity against Cyperus difformis at 500 g a.i/ha measured after 14 days; assay type: functional, organism-based
Echinochloa oryzicola [30] = experiment: Pre-emergence herbicidal activity against Echinochloa oryzicola at 100 g a.i/ha measured after 14 days; assay type: functional, organism-based
Echinochloa oryzicola [31] = experiment: Pre-emergence herbicidal activity against Echinochloa oryzicola at 33 g a.i/ha measured after 14 days; assay type: functional, organism-based
Echinochloa oryzicola [32] = experiment: Pre-emergence herbicidal activity against Echinochloa oryzicola at 500 g a.i/ha measured after 14 days; assay type: functional, organism-based
Lindernia procumbens [33] = experiment: Pre-emergence herbicidal activity against Lindernia procumbens assessed as bleaching of stem/leaf parts; assay type: functional, organism-based
Pontederia vaginalis [34] = experiment: Pre-emergence herbicidal activity against Monochoria vaginalis assessed as bleaching of stem/leaf parts; assay type: functional, organism-based
[35] = tested on: Schoenoplectiella juncoides; experiment: Pre-emergence herbicidal activity against Schoenoplectiella juncoides assessed as bleaching of stem/leaf parts; assay type: functional, organism-based
Cyperus difformis [36] = experiment: Pre-emergence herbicidal activity against Cyperus difformis assessed as bleaching of stem/leaf parts; assay type: functional, organism-based
Echinochloa oryzicola [37] = experiment: Pre-emergence herbicidal activity against Echinochloa oryzicola assessed as bleaching of stem/leaf parts; assay type: functional, organism-based
Cyperus difformis [38] = experiment: Post-emergence herbicidal activity against Cyperus difformis assessed as bleaching of stem/leaf parts; assay type: functional, organism-based; note: test concentration or dose not given here
Pontederia vaginalis [39] = experiment: Post-emergence herbicidal activity against Monochoria vaginalis assessed as bleaching of stem/leaf parts; assay type: functional, organism-based
Echinochloa oryzicola [40] = experiment: Post-emergence herbicidal activity against Echinochloa oryzicola assessed as bleaching of stem/leaf parts; assay type: functional, organism-based
Ammannia multiflora [41] = experiment: Pre-emergence herbicidal activity against Ammannia multiflora assessed as bleaching of stem/leaf parts; assay type: functional, organism-based
Elatine triandra [42] = experiment: Pre-emergence herbicidal activity against Elatine triandra assessed as bleaching of stem/leaf parts; assay type: functional, organism-based
Rotala indica [43] = experiment: Pre-emergence herbicidal activity against Rotala indica assessed as bleaching of stem/leaf parts; assay type: functional, organism-based
Oryza sativa [44] = experiment: Phytotoxicity against Oryza sativa cv. Koshihikari (rice) at 10 g a.i/ha measured after 14 days; assay type: organism-based; details: in vivo, 336 h
Ammannia multiflora [45] = experiment: Pre-emergence herbicidal activity against Ammannia multiflora at 10 g a.i/ha measured after 14 days; assay type: functional, organism-based
Rotala indica [46] = experiment: Pre-emergence herbicidal activity against Rotala indica at 10 g a.i/ha measured after 14 days; assay type: functional, organism-based
Elatine triandra [47] = experiment: Pre-emergence herbicidal activity against Elatine triandra at 10 g a.i/ha measured after 14 days; assay type: functional, organism-based
Lindernia procumbens [48] = experiment: Pre-emergence herbicidal activity against Lindernia procumbens at 10 g a.i/ha measured after 14 days; assay type: functional, organism-based
[49] = tested on: Schoenoplectiella juncoides; experiment: Pre-emergence herbicidal activity against Schoenoplectiella juncoides at 10 g a.i/ha measured after 14 days; assay type: functional, organism-based
Pontederia vaginalis [50] = experiment: Pre-emergence herbicidal activity against Monochoria vaginalis at 1 0 g a.i/ha measured after 14 days; assay type: functional, organism-based
Cyperus difformis [51] = experiment: Pre-emergence herbicidal activity against Cyperus difformis at 10 g a.i/ha measured after 14 days; assay type: functional, organism-based
Echinochloa oryzicola [52] = experiment: Pre-emergence herbicidal activity against Echinochloa oryzicola at 10 g a.i/ha measured after 14 days; assay type: functional, organism-based

SMILES: Cn1cc(C(=O)Nc2ccccc2)c(Oc2cccc(C(F)(F)F)c2)n1
- Activity (Elatine triandra [1]): Active
- Activity (Ammannia multiflora [2]): Active
- Activity (Rotala indica [3]): Active
- Activity (Lindernia procumbens [4]): Active
- Activity [5]: Active
- Activity (Ammannia multiflora [6]): Active
- Activity (Elatine triandra [7]): Active
- Activity (Elatine triandra [8]): Active
- Activity (Rotala indica [9]): Active
- Activity (Oryza sativa [10]): Non-toxic
- Activity (Oryza sativa [11]): Non-toxic
- Activity (Oryza sativa [12]): Toxic
- Activity (Ammannia multiflora [13]): Active
- Activity (Ammannia multiflora [14]): Active
- Activity (Elatine triandra [15]): Active
- Activity (Rotala indica [16]): Active
- Activity (Rotala indica [17]): Active
- Activity (Lindernia procumbens [18]): Active
- Activity (Lindernia procumbens [19]): Active
- Activity [20]: inactive
- Activity (Lindernia procumbens [21]): Active
- Activity [22]: Active
- Activity [23]: Active
- Activity (Pontederia vaginalis [24]): Active
- Activity (Pontederia vaginalis [25]): Active
- Activity (Pontederia vaginalis [26]): Active
- Activity (Cyperus difformis [27]): Active
- Activity (Cyperus difformis [28]): Active
- Activity (Cyperus difformis [29]): Active
- Activity (Echinochloa oryzicola [30]): Active
- Activity (Echinochloa oryzicola [31]): inactive
- Activity (Echinochloa oryzicola [32]): Active
- Activity (Lindernia procumbens [33]): Active
- Activity (Pontederia vaginalis [34]): Active
- Activity [35]: Active
- Activity (Cyperus difformis [36]): Active
- Activity (Echinochloa oryzicola [37]): Active
- Activity (Cyperus difformis [38]): Active
- Activity (Pontederia vaginalis [39]): Active
- Activity (Echinochloa oryzicola [40]): Active
- Activity (Ammannia multiflora [41]): Active
- Activity (Elatine triandra [42]): Active
- Activity (Rotala indica [43]): Active

SMILES: CCONC(=O)c1cn(C)nc1OCc1cccc(C(F)(F)F)c1
- Activity (Elatine triandra [1]): Active
- Activity (Ammannia multiflora [2]): Active
- Activity (Rotala indica [3]): Active
- Activity (Lindernia procumbens [4]): Active
- Activity [5]: Active
- Activity (Elatine triandra [7]): Active
- Activity (Rotala indica [9]): Active
- Activity (Oryza sativa [10]): Non-toxic
- Activity (Oryza sativa [11]): Non-toxic
- Activity (Ammannia multiflora [13]): Active
- Activity (Ammannia multiflora [14]): Active
- Activity (Elatine triandra [15]): Active
- Activity (Rotala indica [16]): Active
- Activity (Lindernia procumbens [18]): Active
- Activity (Lindernia procumbens [19]): Active
- Activity [20]: Active
- Activity [22]: Active
- Activity (Pontederia vaginalis [24]): Active
- Activity (Pontederia vaginalis [26]): Active
- Activity (Cyperus difformis [27]): Active
- Activity (Cyperus difformis [28]): Active
- Activity (Echinochloa oryzicola [30]): Active
- Activity (Echinochloa oryzicola [31]): Active
- Activity (Lindernia procumbens [33]): Active
- Activity (Pontederia vaginalis [34]): Active
- Activity [35]: Active
- Activity (Cyperus difformis [36]): Active
- Activity (Echinochloa oryzicola [37]): Active
- Activity (Cyperus difformis [38]): Active
- Activity (Pontederia vaginalis [39]): Active
- Activity (Echinochloa oryzicola [40]): Active
- Activity (Ammannia multiflora [41]): Active
- Activity (Elatine triandra [42]): Active
- Activity (Rotala indica [43]): Active

SMILES: Cn1cc(C(=O)Nc2ccc(F)cc2F)c(Oc2ccc(Cl)c(C(F)(F)F)c2)n1
- Activity (Elatine triandra [1]): Active
- Activity (Ammannia multiflora [2]): Active
- Activity (Rotala indica [3]): Active
- Activity (Lindernia procumbens [4]): Active
- Activity [5]: Active
- Activity (Oryza sativa [11]): Non-toxic
- Activity (Ammannia multiflora [13]): Active
- Activity (Elatine triandra [15]): Active
- Activity (Rotala indica [16]): Active
- Activity (Lindernia procumbens [18]): Active
- Activity [20]: Active
- Activity (Pontederia vaginalis [24]): Active
- Activity (Cyperus difformis [27]): Active
- Activity (Echinochloa oryzicola [31]): Active
- Activity (Lindernia procumbens [33]): Active
- Activity (Pontederia vaginalis [34]): Active
- Activity [35]: Active
- Activity (Cyperus difformis [36]): Active
- Activity (Echinochloa oryzicola [37]): Active
- Activity (Oryza sativa [44]): Non-toxic
- Activity (Ammannia multiflora [45]): Active
- Activity (Rotala indica [46]): Active
- Activity (Elatine triandra [47]): Active
- Activity (Lindernia procumbens [48]): Active
- Activity [49]: Active
- Activity (Pontederia vaginalis [50]): Active
- Activity (Cyperus difformis [51]): Active
- Activity (Echinochloa oryzicola [52]): inactive
- Activity (Cyperus difformis [38]): Active
- Activity (Pontederia vaginalis [39]): Active
- Activity (Echinochloa oryzicola [40]): Active
- Activity (Ammannia multiflora [41]): Active
- Activity (Elatine triandra [42]): Active
- Activity (Rotala indica [43]): Active
